From patent US20090004497A1, “Wood Preservative Formulations Comprising Rh-287” (priority 2006, published 2009)
Values joined by “and” are separate entries in the source; they are usually repeats but may differ in a detail not shown here. Equal values may be shown once.

Tested on: decay organisms
Assay: soil contact veneer exposure test (Scots pine sapwood veneers part buried in damp compost, pulled by hand until failure)
Settings: for Half lives for chemicals tested as solutions in acetone, With RH-287 added / Half lives for chemicals tested as solutions in acetone, No addition (average time for failure to occur) / Half lives, With RH-287 added, expected value in parentheses / positive synergy: actual average time to failure compared with the estimated one: Example 1; for Half lives for chemicals tested as solutions in acetone, With RH-287 added: 1.00% fungicide plus 1.00% RH-287 in acetone; for Half lives for chemicals tested as solutions in acetone, No addition (average time for failure to occur): 2.00% fungicide alone in acetone, dip treated veneers, 6 replicates, compost about 30° C.; for Half lives, With RH-287 added, expected value in parentheses: expected additive value for 1.00% fungicide plus 1.00% RH-287, midway between the two 2.00% values; for positive synergy: actual average time to failure compared with the estimated one: combination of RH-287 with co-biocide, 1.00% each in acetone
Text: It is preferable that the thickness of the veneers be greater than 0.1 mm, as veneers of lesser thickness can often be pulled apart by hand without undergoing exposure to decay organisms. Veneers which are thicker than 0.4 may take an excessive amount of time to fail the exposure test. In one embodiment, the thickness of the veneers is about 0.2 mm and the wood is the sapwood of the Scots pine (Pinus sylvestris). Other woods and thicknesses can be used. […] For example, 0.2 mm thick Scots pine sapwood veneers which are exposed as outlined below generally fail in 5 weeks or less. An example of convenient width and length dimensions are 15×50 mm. However, width and length are not critical, although very large or small length or width dimensions may be difficult to handle.
Accordingly, the test of the present invention comprises testing the integrity of a veneer after exposure to a decay-inducing environment. In one embodiment, this environment is damp compost in which decay organisms are present and water is present at just above the water holding capacity of the compost. If desired, other media can be used, and the test can be conducted at water contents which are below, at, or above the water-holding capacity of the media.
In general, the integrity of the veneer is inversely related to the length of exposure to the decay promoting environment. The integrity of the veneer can be tested by applying a force to the veneer and noting whether or not the veneer breaks. Thus, if wood preservative agents are applied to the veneers, these veneers would be expected to withstand longer exposure to the environment without breaking compared to control veneers without breaking.
The force applied to the veneers is preferably a force which pulls the two ends in opposite directions. The force can be applied by the use of an instrument or manually. If there is significant decay the veneer will break, generally near the junction between the portion submerged in the decay accelerating medium and the portion exposed to air. If the force is applied manually, it is preferable that the same individual conduct the test at the various exposure time points.
Veneers of Scots pine Pinus sylvestris (0.2 mm thick, 50×15 mm) sapwood are cut from test blocks as described in EN 113, a known standard test method in the European timber industry. The veneers were cut such that both late wood and early wood were present in each veneer. RH-287 was tested in combination with the following biocides: chlorothalonil, fenpropimorph, propiconazole, copper ( as copper naphthenate ), tridemorph, fenarimol, cyproconazole, Imazalil and dichlorophen.
Test solutions were prepared and sets of veneers were dip treated such that there were 6 replicate veneers for each treatment under investigation. Additionally six veneers were dip treated in deionised water to act as water controls. Being thin, the timber veneers dried quickly. Plastic containers (approximately 350×220 mm by at least 60 mm high) were part filled with John Innes Number 2 potting compost at a little above its water holding capacity. The veneers for a particular test were placed in six rows within a container such that approximately half the veneer was below the compost and half above. The veneers were placed in the compost such than those given a particular treatment were distributed throughout the container and were not grouped together. The containers, compost and veneers were weighed then incubated at about 30° C. and near 100% relative humidity in an incubator. Each week during the test the assembly was reweighed and deionised water added to bring it back to its original mass. After 3 weeks each veneer was examined in turn. It was held between the fingers at each end and pulled to see if it could be broken. If it could be pulled apart a failure was recorded. If the veneer was sound, this was recorded and the veneer was returned to its original position. […]

[1] = Example 3, solutions in acetone
[2] = Example 4, solutions in acetone

| Compound | Half lives for chemicals tested as solutions in acetone, With RH-287 added | Half lives for chemicals tested as solutions in acetone, No addition (average time for failure to occur) | Half lives, With RH-287 added, expected value in parentheses | further results |
| --- | --- | --- | --- | --- |
| CCCC1COC(Cn2cncn2)(c2ccc(Cl)cc2Cl)O1 (racemic) [Propiconazole, (±)-1-[2-(2,4-dichlorophenyl)-4-propyl-1,3-dioxolan-2-ylmethyl-=1H-1,2,4-triazol] | 20.50 weeks | 4.50 weeks | (14.84 weeks) | – |
| CCCCCCCCn1sc(Cl)c(Cl)c1=O [RH-287, 4,5 dichloro-2-n-octyl-4-isothiazolin-3-one] | – | 25.17 weeks | – | Half life for fungicide at 2.00% active ingredient (ai) (Example 2, solutions in acetone): 22.50 weeks; Half life for fungicide at 0.8% active ingredient [1]: 10.00 weeks; Half life for fungicide at 1.60% active ingredient (ai) [1]: 16.83 weeks; Half life for fungicide at 0.8% active ingredient [2]: 12.17 weeks; Half life for fungicide at 1.60% active ingredient (ai) [2]: 16.67 weeks; relationship between concentration of RH-287 and veneer half life (Example 5, up to about 2% RH-287 in acetone (FIG. 1)): corresponding increase in the half life |
| Oc1ccc(Cl)cc1Cc1cc(Cl)ccc1O [Dichlorophen, 4.4′-dichloro-2,2′-methylenediphenol] | 24.17 weeks | 16.00 weeks | (20.59 weeks) | Half life for 0.8% fungicide plus 0.8% RH-287, expected value in parentheses (Example 3, expected additive value): {13.83 weeks}; Half life for 0.8% fungicide plus 0.8% RH-287 [1]: 15.33 weeks; Half life for fungicide at 0.8% active ingredient [1]: 8.67 weeks; Half life for fungicide at 1.60% active ingredient (ai) [1]: 10.83 weeks |
| CC(C1CC1)C(O)(Cn1cncn1)c1ccc(Cl)cc1 (stereo not drawn) [Cyproconazole, (2RS,3RS;2RS,3SR)-2-(4-chlorophenyl)-3-cyclopropyl-1-=(1H-1,2,4-trazol-1-yl)butan-2-ol] | 22.00 weeks | 5.17 weeks | (15.17 weeks) | positive synergy: actual average time to failure compared with the estimated one: most marked |
| CC(Cc1ccc(C(C)(C)C)cc1)CN1C[C@@H](C)O[C@@H](C)C1 (mixture of isomers) [Fenpropimorph, (±)-cis-4-[3-(4-tert-butylphenyl)-2-nethylpropyl]-2,6-dimethyl=morpholine] | 21.17 weeks | 4.50 weeks | (14.84 weeks) | positive synergy: actual average time to failure compared with the estimated one: most marked |
| N#Cc1c(Cl)c(Cl)c(Cl)c(C#N)c1Cl [Chlorothalonil, tetrachloroisophthalonitrile] | 22.50 weeks | 12.5 weeks and 12.50 weeks | – | Half lives for chemicals tested as solutions in acetone, No addition (average time for failure to occur) (listed as chlorothalonil): 12.5 weeks; Half lives, With RH-287 added, expected value in parentheses (listed as chlorothalonil): about 18.84 weeks |
| Copper naphthenate [Copper (as Copper Naphthenate)] | 21.50 weeks | 16.67 weeks | – | – |
| OC(c1ccc(Cl)cc1)(c1cncnc1)c1ccccc1Cl (racemic) [Fenarimol, (±)-2,4′-dichloro-α-(pyrimidin-5-yl) benzhydryl alcohol] | 17.17 weeks | 5.50 weeks | (15.34 weeks) | – |
| CCCCCCCCCCCCCN1CC(C)OC(C)C1 (stereo not shown) [Tridemorph, 4-alkyl-2,6-dimethylmorpholine] | 17.50 weeks | 4.33 weeks | (14.75 weeks) | – |
